Literature values as cited in patent US7135436B2, “Solid algicide, preparation and usage in recirculating water” (J.F. Daley International, Ltd., priority 2003, dated 2006).

Conditions: at 20° C.; 'believed to be'

## CCNc1nc(Cl)nc(NC(C)(C)C)n1 [terbuthylazine, 2-(tert-butylamino)-4-chloro-6-(ethylamino)-s-triazine]
  solubility of terbuthylazine in water: about 5 ppm
